According to BindingDB's records for PubMed 30125723 (n/a, 2018):

Target: alpha-glucosidase (Saccharomyces cerevisiae)
Assay: Inhibition of Saccharomyces cerevisiae alpha-glucosidase activity using pNPG as substrate

`O=C(CO)CCC(=O)c1nc(C(=O)O)cc2c1[nH]c1ccccc12` was tested, and the IC50 was 0.063 µM.
